Results published in article PMC5878090 (Journal of controlled release : official journal of the …, 2015).
Blank lines part the entries; values can stand above or below the molecule they belong to.

What was measured:
[1] = system: U87MG cells; test: Anti-proliferation assay; type: cell-based; conditions: Homo sapiens, U-87 MG, 72 h, read-out: anti-proliferation IC50
[2] = system: U87MG cells; test: Cell-cycle analysis; type: cell-based, human; conditions: 10 µM, 24 h, PI labeling
[3] = system: U87MG subcutaneous xenografts; test: Anti-glioblastoma study in subcutaneous U87MG tumor model; type: in vivo, Balb/c nude mice; conditions: 50 mg/kg oral every 2 days until 9th day, n = 8; saline 8.3-fold
[4] = target: Integrin αvβ3 (UniProt P06756); test: SPR

- IC50 [1]: 7.6 µM
Molecule: COc1ccc(C2=N[C@@H](c3ccc(Cl)cc3)[C@@H](c3ccc(Cl)cc3)N2C(=O)N2CCNC(=O)C2)c(OC(C)C)c1 [Nutlin-3]
- cell-cycle arrest [2]: effective cell-cycle arrest in the G1 and G2 phases

Molecule: Cn1nnc2c(C(N)=O)ncn2c1=O [TMZ, temozolomide]
- tumor size fold increase on day 14 versus start of treatment [3]: 0.3 fold

- Kd [4]: 4.05 µM
Molecule: c(RGDyK)-conjugated poly(ethylene glycol)-block-poly(lactic acid) micelle carrying the sPMI peptide
